Test results: patent US6355677B1, “Adrenoleukodystrophy treatments and drug screening” (The Johns Hopkins University, priority 1998, dated 2002)
“Also recorded” adds a separate entry of the source.

Experiments:
[1] = system: human primary fibroblasts; assay: Peroxisome counting by anti-SKL (PTS1) immunofluorescence; format: cell-based; settings: 5 mM
From the text: Peroxisomes were made visible with immunofluorescence using a polyclonal antibody to the C-terminal tripeptide (SKL) peroxisome targeting signal 1 (PTS1), which is present in most peroxisomal matrix proteins. […] We counted the peroxisomes after 10 days of treatment (Table 3). Slides were scanned visually and cells categorized as having low, medium or high numbers of peroxisomes. For each cell line, the number of peroxisomes is the mean of three ‘low’, four ‘medium’ and three ‘high’ cells (Table 3). There was no difference between control cells and X-ALD cells in either the number of peroxisomes per cell or in the response to 4-PBA. […] The 2.4-fold increase in the number of peroxisomes per cell was statistically significant (P<0.0000001, two-tailed Student's t-test). Peroxisome numbers obtained with an antibody against a peroxisomal membrane protein (Pex14p) gave similar results (data not shown).
The anti-SKL (PTSI) antibody was a gift from S. Gould and the anti-Pex11α antibody was a gift from S. Mihalik. To count peroxisomes, we photographed immunofluorescence-stained cells after focusing on the cell nucleus, and determined the peroxisome number per cell with the aid of a colon counter after projecting the slides to enlarge the image.

[2] = system: ALDP; assay: ALDP stabilization, immunofluorescence with anti-ALDP antibody; format: cell-based, human; settings: X-ALD fibroblasts with destabilizing missense mutations (A626T, R660W), 5 mM for up to 10 days
[3] = system: Pex11α; assay: Semi-quantitative RT-PCR, human primary fibroblasts; format: cell-based; settings: 5 mM, 2 days
Method: (§1) Total RNA from tissue culture cells (10^6-10^7 cells/sample) was isolated using TRizol Reagent™ (Life Technologies), treated with DNase I (100-200 units in 40 mM HC, 10mM NaC, 6 mM MgCl2, pH 7.3), incubated at 37° C. for 30 min, extracted with pheno/chloroform, and precipitated with isopropanol. cDNA was generated using MMLV reverse transcriptase (RT) (Life Technologies). PCR was done in the linear range of amplification (determined for each primerpair-cDNA combination). For each cDNA sample, a ‘cocktail’ was prepared, containing PCR buffer (Promega), 200 µM of each DNTP, 1.5 mM MgCl2, 250 ng cDNA, 0.25 U of Taq polymerase (Promega) and […]. The ‘cocktail’ was divided into separate tubes containing cDNA specific primers.
(§2) The PCR primers used are listed below. In the parentheses, h indicates human and m, mouse; this is followed by the gene name, product size and annealing temperature. For primer sequences, F is forward and R is reverse. […]

[4] = system: PPARα; assay: as above; format: cell-based; settings: human X-ALD fibroblasts, 5 mM, up to 10 days
Method: as §1, §2

O=C(O)CCCc1ccccc1 [4-PBA, 4-Phenyl butyrate]
Increase in number of peroxisomes per cell ([1]; 10 days): 2.4 fold
Peroxisomes per cell after exposure ([1]; 10 days, five X-ALD and four control cell lines combined, 416±27 before exposure): 1014±108 peroxisomes per cell
Increase in peroxisome number ([1]; human X-ALD primary fibroblasts, 8 days): approximately twofold
Detectable ALDP after treatment [2]: did not result in detectable levels of ALDP
Pex11α expression [3]: substantially increased; also recorded: substantial increase
PPARα expression [4]: unchanged
